For test [1], the target named is T1, Gonadotropin-releasing hormone receptor (Rattus norvegicus, UniProt P30969).
T1 sequence (P30969 whole entry): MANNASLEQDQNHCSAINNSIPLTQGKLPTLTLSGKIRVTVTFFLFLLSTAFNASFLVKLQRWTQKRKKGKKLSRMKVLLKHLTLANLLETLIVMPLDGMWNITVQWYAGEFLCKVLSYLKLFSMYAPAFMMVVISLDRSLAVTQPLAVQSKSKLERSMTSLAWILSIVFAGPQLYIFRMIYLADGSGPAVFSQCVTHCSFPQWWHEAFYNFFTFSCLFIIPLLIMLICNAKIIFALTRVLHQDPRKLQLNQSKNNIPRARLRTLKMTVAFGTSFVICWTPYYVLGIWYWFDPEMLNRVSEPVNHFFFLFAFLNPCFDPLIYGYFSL
Put plainly: In vitro binding affinity towards […] from rat pituitary cells is expressed as negative logarithm of the equilibrium dissociation constant. The format is cell-based, Pituitary gland cell.

Test [2] addresses Gonadotropin-releasing hormone receptor (Rattus norvegicus) (UniProt P30969). In words: Luteinizing hormone inhibiting potency in rats is expressed as negative logarithm of the concentration (antagonist). The note with it: read-out: pA2 (converted).

Results on three compounds are retold here after ChEMBL document CHEMBL1124356, “Active reduced-size hexapeptide analogues of luteinizing hormone-releasing hormone” (J Med Chem, 1989).

As usually defined, the Ki is the dissociation constant of the complex between target and ligand, obtained from inhibition or displacement.

Consider `CCNC(=O)[C@@H]1CCCN1C(=O)[C@H](CCCN=C(N)N)NC(=O)[C@H](CC(C)C)NC(=O)[C@@H](CC(C)C)NC(=O)[C@H](Cc1ccc(O)cc1)NC(=O)[C@H](CO)NC(=O)[C@@H](N)Cc1cccc2ccccc12`, for which the affinity in test [1], expressed as Ki, was 50.1 nM.
For `CCNC(=O)[C@@H]1CCCN1C(=O)[C@H](CCCN=C(N)N)NC(=O)[C@H](CC(C)C)NC(=O)[C@@H](CC(C)C)NC(=O)[C@H](Cc1ccc(O)cc1)NC(=O)[C@H](CO)NC(=O)[C@@H](N)Cc1c[nH]c2ccccc12`, in test [2], the Kb was 871 nM.
In the case of `CCNC(=O)[C@@H]1CCCN1C(=O)[C@H](CCCN=C(N)N)NC(=O)[C@H](CC(C)C)NC(=O)[C@@H](Cc1c[nH]c2ccccc12)NC(=O)[C@H](Cc1ccc(O)cc1)NC(=O)[C@H](CO)NC(=O)[C@@H](N)Cc1c[nH]c2ccccc12`, the Kb in test [2] was 57.5 nM.
